Measurements: ChEMBL document CHEMBL1201862, “PubChem BioAssay data set” (2004)
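Grown in 96-well plates, cells were treated for 48 hours with each compound at five concentrations. Insufficient inhibition: endpoint recorded as highest concentration tested. Abbreviation: GI50, concentration required for 50% inhibition of growth.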 Active and inactive are the calls of the source. No stated cut-off is given here; in the data, active = GI50 up to about 1.1 µM and inactive = higher.

Columns and labels:
Assay in all cases: DTP human tumour cell line panel, 48 h
CCRF-CEM = test system: CCRF-CEM
EKVX = test system: EKVX
HCT-116 = test system: HCT-116
HOP-92 = test system: HOP-92
HT-29 = test system: HT-29
K562 = test system: K562
NCI-H522 = test system: NCI-H522
NCI/ADR-RES = test system: NCI/ADR-RES
OVCAR-3 = test system: OVCAR-3
OVCAR-4 = test system: OVCAR-4
OVCAR-5 = test system: OVCAR-5
OVCAR-8 = test system: OVCAR-8
PC-3 = test system: PC-3
SF-295 = test system: SF-295
SN12C = test system: SN12C
SR = test system: SR
TK-10 = test system: TK-10
U-251 = test system: U-251
UACC-62 = test system: UACC-62

CCCCCCCCCCN(CCCCCCCCCC)C(=O)COc1c2cc(C(C)(C)C)cc1Cc1cc(C(C)(C)C)cc(c1OCC(=O)N(CCCCCCCCCC)CCCCCCCCCC)Cc1cc(C(C)(C)C)cc(c1OCC(=O)N(CCCCCCCCCC)CCCCCCCCCC)Cc1cc(C(C)(C)C)cc(c1OCC(=O)N(CCCCCCCCCC)CCCCCCCCCC)C2 was tested. Which GI50 (CCRF-CEM) did it give?
Its GI50 is 4.66 µM (inactive).

What about the GI50 (EKVX) of the same compound?
Its GI50 is 12.1 µM (inactive).

What about the GI50 (HCT-116) of the same compound?
The GI50 was 2.54 µM (inactive).

What about the GI50 (HOP-92) of the same compound?
The GI50 was < 0.01 µM (active).

And the GI50 (HT-29)?
Its GI50 is 2.34 µM (inactive).

What about the GI50 (K562) of the same compound?
Its GI50 is 1.9 µM (inactive).

What about the GI50 (NCI-H522) of the same compound?
Its GI50 is 3.18 µM (inactive).

And the GI50 (NCI/ADR-RES)?
Its GI50 is 14.8 µM (inactive).

And the GI50 (OVCAR-3)?
The GI50 was 15.7 µM (inactive).

And the GI50 (OVCAR-4)?
Its GI50 is 10.4 µM (inactive).

What about the GI50 (OVCAR-5) of the same compound?
The GI50 was 13.3 µM (inactive).

And the GI50 (OVCAR-8)?
Its GI50 is 4.16 µM (inactive).

What about the GI50 (PC-3) of the same compound?
Its GI50 is 9.93 µM (inactive).

And the GI50 (SF-295)?
Its GI50 is 10.1 µM (inactive).

What about the GI50 (SN12C) of the same compound?
The GI50 was 13.4 µM (inactive).

What about the GI50 (SR) of the same compound?
The GI50 was 2.96 µM (inactive).

And the GI50 (TK-10)?
The GI50 was 18.8 µM (inactive).

And the GI50 (U-251)?
Its GI50 is 11.2 µM (inactive).

What about the GI50 (UACC-62) of the same compound?
Its GI50 is 12.6 µM (inactive).

With CCCCCCCCCCCC(=O)C1=C(O)CC(O)CC1=O (stereo not drawn) as the compound, how does the GI50 (CCRF-CEM) read?
Its GI50 is 62.2 µM (inactive).

What about the GI50 (EKVX) of the same compound?
The GI50 was > 100 µM (inactive).

And the GI50 (HCT-116)?
The GI50 was > 100 µM (inactive).

And the GI50 (HOP-92)?
Its GI50 is > 100 µM (inactive).

And the GI50 (HT-29)?
The GI50 was > 100 µM (inactive).

And the GI50 (K562)?
Its GI50 is 42.2 µM (inactive).

What about the GI50 (NCI-H522) of the same compound?
The GI50 was > 100 µM (inactive).

And the GI50 (OVCAR-3)?
Its GI50 is 82.6 µM (inactive).

What about the GI50 (OVCAR-4) of the same compound?
Its GI50 is > 100 µM (inactive).

And the GI50 (OVCAR-5)?
Its GI50 is 68.7 µM (inactive).

What about the GI50 (OVCAR-8) of the same compound?
Its GI50 is 74.1 µM (inactive).

And the GI50 (SF-295)?
The GI50 was 84.1 µM (inactive).

And the GI50 (SN12C)?
The GI50 was > 100 µM (inactive).

What about the GI50 (SR) of the same compound?
The GI50 was > 100 µM (inactive).

What about the GI50 (TK-10) of the same compound?
Its GI50 is > 100 µM (inactive).

And the GI50 (U-251)?
The GI50 was 91.8 µM (inactive).

And the GI50 (UACC-62)?
The GI50 was 95.1 µM (inactive).

CC1=CC=NN2C(=O)[C@H](C)C2C1 (stereo partly drawn) was tested. Which GI50 (CCRF-CEM) did it give?
Its GI50 is > 100 µM (inactive).

And the GI50 (EKVX)?
The GI50 was > 100 µM (inactive).

What about the GI50 (HCT-116) of the same compound?
Its GI50 is > 100 µM (inactive).

What about the GI50 (HOP-92) of the same compound?
The GI50 was > 100 µM (inactive).

And the GI50 (HT-29)?
Its GI50 is > 100 µM (inactive).

What about the GI50 (K562) of the same compound?
The GI50 was > 100 µM (inactive).

What about the GI50 (NCI-H522) of the same compound?
The GI50 was > 100 µM (inactive).

And the GI50 (OVCAR-3)?
Its GI50 is > 100 µM (inactive).

What about the GI50 (OVCAR-4) of the same compound?
The GI50 was > 100 µM (inactive).

And the GI50 (OVCAR-5)?
Its GI50 is > 100 µM (inactive).

What about the GI50 (OVCAR-8) of the same compound?
Its GI50 is > 100 µM (inactive).

And the GI50 (SF-295)?
The GI50 was > 100 µM (inactive).

What about the GI50 (SN12C) of the same compound?
Its GI50 is > 100 µM (inactive).

And the GI50 (SR)?
The GI50 was > 100 µM (inactive).

And the GI50 (TK-10)?
The GI50 was > 100 µM (inactive).

And the GI50 (U-251)?
Its GI50 is > 100 µM (inactive).

And the GI50 (UACC-62)?
Its GI50 is > 100 µM (inactive).

What does the source list for Cc1ccc(S(=O)(=O)C(CC(=O)N2CCCC2)C(=O)c2ccccc2)cc1 (stereo not drawn)?
GI50 (CCRF-CEM): 24.6 µM (inactive); GI50 (HCT-116): 55.6 µM (inactive); GI50 (HOP-92): > 100 µM (inactive); GI50 (HT-29): > 100 µM (inactive); GI50 (K562): 24.9 µM (inactive); GI50 (NCI-H522): 89.3 µM (inactive); GI50 (OVCAR-3): > 100 µM (inactive); GI50 (OVCAR-4): > 100 µM (inactive); GI50 (OVCAR-5): > 100 µM (inactive); GI50 (OVCAR-8): > 100 µM (inactive); GI50 (SF-295): > 100 µM (inactive); GI50 (SN12C): > 100 µM (inactive); GI50 (SR): 25.5 µM (inactive); GI50 (TK-10): > 100 µM (inactive); GI50 (U-251): > 100 µM (inactive); GI50 (UACC-62): > 100 µM (inactive)

With N#COc1ccc(Oc2ccccc2)cc1 as the compound, how does the GI50 (CCRF-CEM) read?
Its GI50 is 24.5 µM (inactive).

What about the GI50 (EKVX) of the same compound?
The GI50 was > 100 µM (inactive).

And the GI50 (HCT-116)?
Its GI50 is 61.7 µM (inactive).

What about the GI50 (HOP-92) of the same compound?
Its GI50 is 43.8 µM (inactive).

What about the GI50 (HT-29) of the same compound?
Its GI50 is 72.4 µM (inactive).

What about the GI50 (K562) of the same compound?
Its GI50 is 48.4 µM (inactive).

And the GI50 (NCI-H522)?
Its GI50 is 34.7 µM (inactive).

And the GI50 (OVCAR-3)?
Its GI50 is > 100 µM (inactive).

And the GI50 (OVCAR-4)?
The GI50 was > 100 µM (inactive).

What about the GI50 (OVCAR-5) of the same compound?
Its GI50 is > 100 µM (inactive).

What about the GI50 (OVCAR-8) of the same compound?
The GI50 was 49.5 µM (inactive).

And the GI50 (SF-295)?
Its GI50 is 59.8 µM (inactive).

What about the GI50 (SN12C) of the same compound?
Its GI50 is 62.4 µM (inactive).

What about the GI50 (SR) of the same compound?
The GI50 was 24.3 µM (inactive).

What about the GI50 (TK-10) of the same compound?
The GI50 was > 100 µM (inactive).

What about the GI50 (U-251) of the same compound?
The GI50 was 42.7 µM (inactive).

And the GI50 (UACC-62)?
The GI50 was 31.5 µM (inactive).

For CC(=O)OCC1OC(OCC2OC(N3C(=S)N[C@H]([C@@H](O)[C@H](O)[C@H](O)CO)[C@H]3O)C(OC(C)=O)C(OC(C)=O)C2OC(C)=O)C(OC(C)=O)C(OC(C)=O)C1OC(C)=O (stereo partly drawn), which GI50 (HCT-116) is on record?
The GI50 was > 100 µM (inactive).

And the GI50 (HOP-92)?
Its GI50 is 33.5 µM (inactive).

What about the GI50 (HT-29) of the same compound?
Its GI50 is 65.6 µM (inactive).

What about the GI50 (K562) of the same compound?
Its GI50 is 28.6 µM (inactive).

And the GI50 (NCI-H522)?
Its GI50 is 83.8 µM (inactive).

What about the GI50 (NCI/ADR-RES) of the same compound?
Its GI50 is > 100 µM (inactive).

And the GI50 (OVCAR-3)?
Its GI50 is > 100 µM (inactive).

And the GI50 (OVCAR-4)?
Its GI50 is > 100 µM (inactive).

What about the GI50 (OVCAR-5) of the same compound?
The GI50 was > 100 µM (inactive).

What about the GI50 (OVCAR-8) of the same compound?
Its GI50 is 43.9 µM (inactive).

What about the GI50 (PC-3) of the same compound?
Its GI50 is > 100 µM (inactive).

And the GI50 (SF-295)?
Its GI50 is > 100 µM (inactive).

What about the GI50 (SN12C) of the same compound?
The GI50 was > 100 µM (inactive).

What about the GI50 (SR) of the same compound?
Its GI50 is > 100 µM (inactive).

What about the GI50 (TK-10) of the same compound?
Its GI50 is > 100 µM (inactive).

And the GI50 (U-251)?
The GI50 was > 100 µM (inactive).

What about the GI50 (UACC-62) of the same compound?
The GI50 was > 100 µM (inactive).

How did the GI50 (CCRF-CEM) turn out when Cc1c2cc[n+](C)cc2c(C)c2c1[nH]c1ccc(OCC(F)(F)F)cc12 was run?
Its GI50 is 4.16 µM (inactive).

What about the GI50 (EKVX) of the same compound?
Its GI50 is 15 µM (inactive).

What about the GI50 (HCT-116) of the same compound?
The GI50 was 3.95 µM (inactive).

And the GI50 (HOP-92)?
The GI50 was 2.43 µM (inactive).

And the GI50 (HT-29)?
Its GI50 is 2.28 µM (inactive).

What about the GI50 (K562) of the same compound?
The GI50 was 2.65 µM (inactive).

What about the GI50 (NCI-H522) of the same compound?
The GI50 was 1.63 µM (inactive).

What about the GI50 (OVCAR-3) of the same compound?
The GI50 was 2.59 µM (inactive).

And the GI50 (OVCAR-4)?
Its GI50 is 2.45 µM (inactive).

What about the GI50 (OVCAR-8) of the same compound?
Its GI50 is 0.798 µM (active).

What about the GI50 (SF-295) of the same compound?
Its GI50 is 0.327 µM (active).

And the GI50 (SN12C)?
Its GI50 is 0.277 µM (active).

What about the GI50 (SR) of the same compound?
Its GI50 is 2.67 µM (inactive).

What about the GI50 (U-251) of the same compound?
Its GI50 is 0.256 µM (active).

What about the GI50 (UACC-62) of the same compound?
Its GI50 is 6.82 µM (inactive).
